Test results as given in patent US4820824A, “Mitomaycin compounds” (Kyowa Hakko Kogyo Kabushiki Kaisha, priority 1986, dated 1989).
In brackets after ≈: the same amount, converted by molar mass. Like-named read-outs stand apart in the source and are kept apart here.

How the values were obtained:
[1] = system: Streptococcus faecalis ATCC 10541; test: Antibacterial activity, agar dilution method (MIC), Streptococcus faecalis; format: cell-based; settings: Enterococcus faecalis, ATCC10541, pH 7.0, read-out: Minimum inhibitory concentration (MIC), SF
Method: (§1) Antibacterial activities of Compounds (I) against various microorganisms are shown in the following Table 5, in which the minimum inhibitory concentration MIC (μg/ml) was measured by the agar dilution method at a pH of 7.0.
(§2) In this table, the following abbreviations are used: SF-Streptococcus faecalis ATCC 10541; SA-Staphylococcus aureus ATCC6538P; BS-Bacillus subtilis 10707; PV-Proteus vulgaris ATCC6897; KP-Klebsiella pneumoniae ATCC10031.

[2] = system: Staphylococcus aureus ATCC6538P; test: Antibacterial activity, agar dilution method (MIC), Staphylococcus aureus; format: cell-based; settings: pH 7.0, read-out: Minimum inhibitory concentration (MIC), SA
Method: as §1, §2

Bacillus subtilis 10707 = test: Antibacterial activity, agar dilution method (MIC), Bacillus subtilis; format: cell-based; settings: pH 7.0, read-out: Minimum inhibitory concentration (MIC), BS
Method: as §1, §2

[3] = system: Proteus vulgaris ATCC6897; test: Antibacterial activity, agar dilution method (MIC), Proteus vulgaris; format: cell-based; settings: pH 7.0, read-out: Minimum inhibitory concentration (MIC), PV
Method: as §1, §2

[4] = system: Klebsiella pneumoniae ATCC10031; test: Antibacterial activity, agar dilution method (MIC), Klebsiella pneumoniae; format: cell-based; settings: pH 7.0, read-out: Minimum inhibitory concentration (MIC), KP
Method: as §1, §2

Sarcoma 180 solid tumour = test: Antitumour activity against Sarcoma 180 solid tumour; format: in vivo, ddy male mouse; settings: for ED50: Mus musculus, Sarcoma-180, iv, 168 h; for C.I. (LD50/ED50): chemotherapeutic index LD50/ED50, Sarcoma 180, ddy mice
Text: (§3) Certain Compounds (I) and Sarcoma 180 solid tumour were used to determine, on each occasion, antitumour activity (ED50), acutee toxicity (LD50) and effect upon peripherical leucocytes (WBC4000), as shown Table 6.
5×10^6 cells of Sarcoma 180 solid tumour were abdominally implanted into a ddy mouce. 7 days after this, the cells were collected from the ascites fluid. The cells were washed once with physiological saline under sterile conditions and suspended in physiological saline to obtain a cell suspension containing 5×10^7 cells/ml, of which 0.1 ml was implanted into a ddy male mouce (body weight 20±2 g) under the skin of the right armpit. The test compound was dissolved in physiological saline or the same solution containing Tween 80. 24 hours after implantation of the tumour cells, 0.1-0.2 ml of the solution containing the test compound was administered to the tail vein of each animal in the test group consisting of 5 animals. 7 days after the implantation, the major axis (a) and minor axis (b) of the tumour were measured to calculate the volume of the tumour as ("a"×"b^2 ")/2. The antitumour effect was indicated by T/C which is the ratio of the tumour volume in the test animals to the corresponding volume of the control (untreated) animals.
ED50 denotes the dosage capable of decreasing the volume of Sarcoma 180 solid tumour to 50% of the corresponding volume of the control animals. T/C ratios and the dose were respectively plotted on the ordinate using an arithmetic scale and on the abscissa using a logarithmic scale, the relationship between the dosage and the T/C ratio being converted to a straight line by the least squares method. From the straight tropic line thus-obtained, the dosage corresponding to a T/C=0.5 viz. ED50 was determined.

Acute toxicity = settings: mouse, in vivo, ip; ddy mice, single abdominal administration, 14 days observation, Behrens-Korber's method
Text: as §3
The test compound was abdominally administered once to ddy mice, each group consisting of 5 animals.

peripheral leucocytes = test: Effect upon peripheral leucocytes (bone marrow toxicity); format: in vivo, male mice (ddy strain); settings: minimum dose decreasing peripheral leucocytes to 4000/mm^3; tumour-bearing ddy mice, intraperitoneal, blood 4 days later
Method: as §3
of peripheral leucocytes to 4000/mm^3.
Sarcoma 180 solid tumour cells (5×10^6) were subcutaneously implanted under the skin of the right armpit of each mouse (body weight 20±2 g) of a group consisting of 5 male mice (ddy strain). 24 hours after this, a test compound was intraperitoneally administered to each animal. 4 days later, blood (0.02 ml) was collected from the suborbital plexus vein of each tumour-carrying animal. The collected sample of blood was dispersed in 9.98 ml of Cellkit Seven solution. One drop of saponin solution was added to the sample to dissolve erythrocytes and then a microcell counter was used to measure the number of leucocytes. On graph paper, the number of leucocytes was plotted on the ordinate using an arithmetic scale, and the dosage was plotted on the abscissa using a logarithmic scale to show the relationship of the dosage to the number of peripherical leucocytes, from which the value of WBC4000 viz. a value capable of giving 4000 peripheral leucocytes per mm^3 (about half of the corresponding value in normal mice) was obtained.

Water-solubility = format: physicochemical
[5] = dose giving T/C=0.5 tumour volume, single tail vein administration 24 hours after implantation, measured 7 days after implantation, read-out: ED50

CO[C@@]12[C@H](COC(N)=O)C3=C(C(=O)C(C)=C(N=S(c4ccccc4)c4ccccc4)C3=O)N1C[C@@H]1N[C@@H]12 [Compound 1, 7-demethoxy-7-diphenylsulfiliminomitomycin A] gave an MIC [1] of 0.02 µg/mL (≈ 0.0386 µM), an MIC [2] of 0.01 µg/mL (≈ 0.0193 µM) and an MIC (Bacillus subtilis 10707) of under 0.005 µg/mL. It also gave an MIC [3] of 0.63 µg/mL (≈ 1.21 µM) and an MIC [4] of 0.16 µg/mL (≈ 0.309 µM).

Compound CC1=C(N=S(c2ccccc2)c2ccccc2)C(=O)C2=C(C1=O)N1C[C@H]3[C@H](N3C)[C@]1(O)[C@H]2COC(N)=O (stereo partly shown) [Compound 2] has an MIC [1] of 0.78 µg/mL (≈ 1.5 µM), an MIC [2] of 0.78 µg/mL (≈ 1.5 µM) and an MIC (Bacillus subtilis 10707) of 0.2 µg/mL (≈ 0.386 µM). For the same compound, the MIC [4] was 25 µg/mL (≈ 48.2 µM), the ED50 (Sarcoma 180 solid tumour; [5]) was 89.1 mg/kg and the “C.I. (LD50/ED50)” value (Sarcoma 180 solid tumour) was over 2.2. It also gave an LD50 at 336 h (Acute toxicity) of over 200 mg/kg and a WBC4000 (peripheral leucocytes) of over 200 mg/kg.

In the case of C=C1C2=C(C(=O)C(C)=C(N=S(c3ccccc3)c3ccccc3)C2=O)N2C[C@H]3[C@H](N3C)[C@]12O (stereo partly shown) [Compound 3], the MIC (Bacillus subtilis 10707) is reported as 0.63 µg/mL (≈ 1.38 µM), the ED50 (Sarcoma 180 solid tumour; [5]) is reported as 132 mg/kg and the “C.I. (LD50/ED50)” value (Sarcoma 180 solid tumour) is reported as over 1.5. For the same compound, the LD50 at 336 h (Acute toxicity) was over 200 mg/kg and the WBC4000 (peripheral leucocytes) was over 200 mg/kg.

With CO[C@@]12[C@H](COC(N)=O)C3=C(C(=O)C(C)=C(N=S(C)c4ccccc4)C3=O)N1C[C@@H]1N[C@@H]12 (stereo partly shown) [Compound 5, (E)-7-demethoxy-7-methylphenylsulfilimino mitomycin A] the ED50 (Sarcoma 180 solid tumour; [5]) was 2.7 mg/kg, the “C.I. (LD50/ED50)” value (Sarcoma 180 solid tumour) was 5.6 and the LD50 at 336 h (Acute toxicity) was 15 mg/kg. For the same compound, the WBC4000 (peripheral leucocytes) was 4.1 mg/kg.

Compound CCS(CC)=NC1=C(C)C(=O)C2=C(C1=O)[C@@H](COC(N)=O)[C@@]1(OC)[C@H]3N[C@H]3CN21 [Compound 6] has an MIC [1] of 0.078 µg/mL (≈ 0.185 µM), an MIC [2] of 0.039 µg/mL (≈ 0.0923 µM) and an MIC (Bacillus subtilis 10707) of 0.02 µg/mL (≈ 0.0473 µM). For the same compound, the MIC [3] was 0.039 µg/mL (≈ 0.0923 µM), the MIC [4] was 0.039 µg/mL (≈ 0.0923 µM) and the ED50 (Sarcoma 180 solid tumour; [5]) was 2.5 mg/kg. The “C.I. (LD50/ED50)” value (Sarcoma 180 solid tumour) was 3.8, the LD50 at 336 h (Acute toxicity) was 9.4 mg/kg and the WBC4000 (peripheral leucocytes) was 5.6 mg/kg. The solubility (Water-solubility) was over 40 mg/mL.

CCS(CC)=NC1=C(C)C(=O)C2=C(C1=O)[C@H](COC(N)=O)[C@@]1(O)[C@@H]3[C@H](CN21)N3C (stereo partly shown) [Compound 7] gave an MIC [1] of 20 µg/mL (≈ 47.3 µM), an MIC [2] of 10 µg/mL (≈ 23.7 µM) and an MIC (Bacillus subtilis 10707) of 5 µg/mL (≈ 11.8 µM). The MIC [3] was 20 µg/mL (≈ 47.3 µM) and the MIC [4] was 10 µg/mL (≈ 23.7 µM).

CO[C@@]12[C@H](COC(N)=O)C3=C(C(=O)C(C)=C(N=P(c4ccccc4)(c4ccccc4)c4ccccc4)C3=O)N1C[C@@H]1N[C@@H]12 [Compound 9, 7-demethoxy-7-triphenylphosphiniminomitomycin A] showed an MIC [1] of 13 µg/mL (≈ 21.9 µM), an MIC [2] of 13 µg/mL (≈ 21.9 µM) and an MIC (Bacillus subtilis 10707) of 3.1 µg/mL (≈ 5.21 µM). For the same compound, the MIC [3] was 25 µg/mL (≈ 42 µM), the MIC [4] was 13 µg/mL (≈ 21.9 µM) and the ED50 (Sarcoma 180 solid tumour) was 100 mg/kg. The “C.I. (LD50/ED50)” value (Sarcoma 180 solid tumour) was at least 1.0, the LD50 at 336 h (Acute toxicity) was over 100 mg/kg and the WBC4000 (peripheral leucocytes) was over 100 mg/kg.
